The values below come from patent publication US6106864A, “Pharmaceutical formulations containing darifenacin” (Pfizer Inc., priority 1995, dated 2000).

The structures appear in SMILES notation.

The assay concerns muscarinic M3 receptors over M1 receptors. Briefly: Selectivity for muscarinic M3 receptors over M1 receptors. Conditions: metabolite compared with darifenacin; "It appears".

For `NC(=O)C(c1ccccc1)(c1ccccc1)[C@@H]1CCN(CCc2ccc3c(c2)C(O)CO3)C1` (stereo partly shown) [metabolite], the “less selective for muscarinic M3 receptors over M1 receptors in comparison with darifenacin” value is 6 fold.
